Data: patent US5733904A, “Method for prevention and treatment of viral infectious diseases for viral suppression” (priority 1996, dated 1998)

Assays:
[1] = test system: Env (gp120) protein, HIV-1 infected MOLT-4 cells; test: Suppressive action on expression of Env (gp120) protein on the surface of cells; format: cell-based; conditions: FIG. 3; Env positive cells after 5 days
Protocol: (Suppressive action on expression of Env (gp120) protein on the surface of cells.)
Cells obtained by culturing MOLT-4 (culture condition: 37° C., 5% CO2 /95% air, RPMI medium (GIBCO Corp.) containing 10% FBS) were adjusted to a preferable number of cells (1×10^5 cells/50 μl ). The cell suspension, 50 μl, (infected with MOLT-4 and HIV-1: M.O.I.=1.0) was put in a 96 hole microplate and cultured for 1 hour to infect the cells.
A solution of the compound shown below, 100 μl, was added in each well and cultured for 5 days. The cultured solution was transferred into a plastic tube (Eppendorf Corp.) and centrifuged to collect the cells. The cells were treated with mouse anti-Env gp120 monoclonal antibody (Replingen Inc.) as a primary antibody and FITC (Fluorescein Isothiocyanate) labelled goat anti-mouse IgG (Cappel Corp.) as a secondary antibody to fluoresce. The number of fluorescent cells was fluoroscopically calculated by counting fluorescent cells according to an indirect fluorescent antibody technique (Techniques in HIV Research, Ed. A. Aldoriny and B. D. Walker, Stokton Press, New York, 1990).
Env positive cells (%) was calculated by the following equation:
Env positive cells (%)=(FITC) positive cells/total cells)×100
Compounds: FAS, H-7 and KN-62.
Control: solution without compound was used.

[2] = test system: HIV-1; test: Comparison of suppressive activity of HIV proliferation with FAS and other anti-HIV drugs (syncytium formation); format: cell-based
Protocol: Comparison of suppressive activity of HIV proliferation with FAS and other anti-HIV drugs.
Experiments were conducted by the same method as in Example 3.
The medicaments used in this experiment were compounds of the present invention (FAS, and a compound of formula [I] where R^1 is hydroxy as in the above-mentioned Japanese Patent Unexamined Publication No. 61-152658), ddI (Sigma Corp.) and AZT (Sigma Corp.) which are used as medicaments for the treatment of AIDS, and dextran sulfate (Sigma Corp.).

[3] = test system: rabbit plasma; test: Blood coagulation time (APTT, PT); parameters: species or system rabbit (male, Japanese white); conditions: for PT / APTT: N=4, mean ± S.E.; for PT: control 7.3 ± 0.4; for APTT: control 16.9 ± 0.8
Protocol: a) Blood coagulation time:
Rabbits (male, Japanese white, body weight 2-3 kg, Oriental Yeast Co.) were used. […] After adding the test compound to the resultant plasma, activated partial thromboplastin time (APTT) and prothrombin time (PT) were measured by using a coagulometer (Coagtec, Coagtec TE600, EMRA; KC-10A, Baxter).

[4] = Acute toxicity in rats; parameters: species or system rat (Jcl: Wistar, 5 weeks); conditions: rat, in vivo
Protocol: (§1) Acute toxicity of the compounds of the present invention were conducted on rats and mice, and low toxicity was confirmed.

[5] = Acute toxicity in mice; parameters: species or system mouse (Slc: ddy, 5 weeks); conditions: mouse, in vivo, iv, i. v., male
Protocol: as §1

[6] = test system: myosin light chain kinase; conditions: Cranial Nerve, 45 (9), 819-824, 1993; cited from earlier work

For `Cl.O=S(=O)(c1cccc2cnccc12)N1CCCNCC1` [FAS, hexahydro-1-(5-isoquinoline-sulfonyl)-1H-1,4-diazepine hydrochloride], the “inhibitory activity for Env expression” value [1] was “strong inhibitory activity for Env expression”, the “inhibitory activity of syncytium formation of HIV-1” value [2] was “higher sensitivity than dextran sulfate, ddI and AZT” and the IC50 ([2]; Human immunodeficiency virus 1, FIG. 5, approximate, read-out: 50% inhibitory concentration, syncytium formation) was ~800 nM. For the same compound, the “effect on blood coagulation time (APTT, PT)” value [3] was “no effect on blood coagulation time”, the PT ([3]; 10 μM) was 7.1 ± 0.6 s and the APTT ([3]; 10 μM) was 16.4 ± 0.8 s. It also gave a PT ([3]; 30 μM) of 7.1 ± 0.5 s, an APTT ([3]; 30 μM) of 16.0 ± 0.8 s and a PT ([3]; 100 μM) of 7.6 ± 0.9 s. For the same compound, the APTT ([3]; 100 μM) was 16.3 ± 0.8 s, the LD50 ([4]; iv, i. v., female) was 63.9 mg/kg and the LD50 ([4]; iv, i. v., male) was 59.9 mg/kg. For the same compound, the LD50 ([4]; po, p. o., female) was 348 mg/kg, the LD50 ([4]; po, p. o., male) was 335 mg/kg and the LD50 ([4]; sc, s. c., female) was 128 mg/kg. For the same compound, the LD50 ([4]; sc, s. c., male) was 123 mg/kg, the LD50 [5] was 63.7 mg/kg and the “myosin light chain kinase inhibition” value [6] was “myosin light chain kinase inhibition”.
